According to US20230302031A1, “Modulators Of Purinergic Receptors and Related Immune Checkpoint For Treating Acute Respiratory Distress Syndrome” (priority 2020, published 2023):
Where two headings read alike, the source gives them in different places.

Assays:
[1] = test system: Bleomycin-induced lung inflammation; assay: Mouse model of bleomycin-induced lung inflammation; format: in vivo, C57BL/6 mice; conditions: 300 μg intraperitoneally every 3 days
SARS-CoV-2 [2] = assay: SARS-CoV-2 replication in Vero E6 cells (RdRp and E mRNA, quantitative RT-PCR); format: cell-based; conditions: 500 μM UTP, 100 μM Diquafosol, 5 μM Denufosol; for amount of RdRp and E mRNA (viral replication): Vero E6, 16 and 24 hours of infection, 50 μM PPADS, 100 μM BzATP, FIG. 2; for replication of SARS-CoV-2 and/or associated cytopathogenic effects: Vero E6, RdRp and E mRNA, Spike-positive cells, viability, FIG. 7D, 7E, 7I-7K, 12A, 12B
SARS-CoV-2 [3] = format: cell-based; conditions: FIG. 7K; for ACE2 expression in response to SARS-CoV-2 infection: western blot; for intracellular expression of Spike: Vero E6, 24 hours, 50 μM PPADS, 100 μM OxATP, 100 μM BzATP
[4] = test system: PMA-treated THP1 macrophages; assay: IRF5 expression in IFNγ-stimulated PMA-THP1 macrophages (western blot); format: cell-based, human
Experimental: (§1) Human THP-1 cells were cultured in RPMI 1640 media, supplemented with 10% FBS and differentiated by treatment for 3 hours with 100 nM phorbol-12-myristate-13-acetate (PMA, Invivogen). After 2 days, macrophage THP-1 cells were stimulated first 3 hours with ultrapure LPS from E. coli (10 ng/ml, LPS) and then stimulated for 6 hours with ATP (5 mM, Sigma) or treated with 50 ng or 20 ng of IFNg during 24 or 12 hours as indicated. Then, supernatants and cells were collected for western blot analysis.
(§2) Cells or supernatant were lysed in appropriated buffer (250 mM NaCl, 0.1% NP-40, 5 mM EDTA, 10 mM Na3VO4, 10 mM NaF, 5 mM DTT, 3 mM Na4P2O7, 1 mM EGTA, 10 mM Glycerol phosphate, 10 mM Tris-Hcl (pH=7.5) and the protease and phosphatase inhibitors (Roche)). Equal amount of supernatant or 10-40 μg of protein extracts were run on 4-12% or 10% SDS-PAGE and transferred at 4° C. onto a nitrocellulose membrane (0.2 Micron). After incubation for 2 hours at room temperature with 5% nonfat milk or BSA (Bovine Serum Albumine) in Tris-buffered saline and 0.1% Tween 20 (TBS-Tween), membranes were incubated with primary antibody at 4° C. overnight. […] The primary antibodies against. […] Western blots shown are representative of at least of three independent experiments.
Total cellular proteins were extracted and lysed in appropriated buffer containing 250 mM NaCl, 0.1% NP-40, 5 mM EDTA. 10 mM Na3VO4, 10 mM NaF, 5 mM DTT, 3 mM Na4P2O7, 1 mM EGTA, 10 mM Glycerol phosphate, 10 mM Tris-HCl (pH=7.5) and the protease and phosphatase inhibitors (Roche)). Then, 10-40 μg of protein extracts were run on 4-12% or 12% SDS-PAGE and transferred at 4° C. onto a nitrocellulose membrane (0.2 Micron). After 2 hours saturation at room temperature with 5% nonfat milk or BSA (Bovine Serum Albumin) in Tris-buffered saline and 0.1% Tween 20 (TBS-Tween), nitrocellulose membranes were incubated with primary antibody at 4° C. overnight. […] The primary antibodies against P2Y2 (#APR-010) and P2X7 (#APR-004) were obtained from Alomone laboratories. […]

SARS-CoV-2 [5] = assay: SARS-CoV-2 replication in ACE2-A549 cells (RdRp and E mRNA, Spike expression); format: cell-based; conditions: ACE2-A549, 48 hours; 500 μM UTP, 100 μM Diquafosol, 5 μM Denufosol; FIG. 7F-H
[6] = test system: PMA-treated THP1 macrophages; assay: IL-1β release from LPS+ATP-stimulated PMA-THP1 macrophages (western blot/ELISA); format: cell-based, human; conditions: for IL-1β release: 100 μM compound, 10 ng/mL LPS 3 hours + 5 mM ATP 6 hours, FIG. 6E, 6I
Experimental: as §1, §2
Plasma serum from P2y2^+/+ and P2y2^−/− mice and supernatants harvested from PMA-stimulated THP1 macrophages that were depleted or not for P2Y2 or NLRP3, and/or stimulated with 10 ng/mL LPS during 3 hours and 5 mM ATP during 6 hours or with 20 ng/mL IFNγ, in presence or in absence of 100 μM Suramin, 100 μM OxATP, 100 μM Kaempferol or 100 μM Diquafosol at indicated times were analyzed using western blot or ELISA for IL-1β (Ebioscience) and IL-10 (BD) according to the manufacturers' instructions.

SARS-CoV-2 [7] = format: cell-based; conditions: Vero E6, 72 hours infection, MOI 1-2, indicated concentrations, MTT
ACE2 [8] = format: cell-based, African green monkey; conditions: Vero E6, 24 hours; 500 μM UTP, 100 μM Diquafosol, 5 μM Denufosol, 50 μM PPADS, 100 μM OxATP, 100 μM BzATP; FIG. 14A
ACE2 [9] = format: cell-based; conditions: ACE2-A549, 24 hours; same concentrations; FIG. 14B
P2Y2-NLRP3 interaction = target: T1, P2Y2-NLRP3 interaction (Homo sapiens, UniProt P41231); assay: P2Y2-NLRP3 proximity ligation assay in PMA-primed THP1; format: cell-based; conditions: 100 μM, 96 hours; FIG. 10A
T1 construct: Frequency of P2Y2-NLRP3 PLA+ cells detected after treatment of PMA-primed THP1 with 100 μM AR-C118925XX; endogenous in cells; host or cells: PMA-primed THP1 macrophages (ATCC)

Vero E6 cells = conditions: Vero E6, 72 hours, MTT; PPADS and OxATP at 100 μM; BzATP indicated concentrations
ACE2-A549 cells = conditions: ACE2-A549, 72 hours, MTT; PPADS and OxATP at 100 μM; BzATP indicated concentrations
SARS-CoV-2 [10] = format: cell-based; conditions: Vero E6, 24 hours, 50 μM PPADS, 100 μM OxATP

T1 sequence (P41231 whole entry): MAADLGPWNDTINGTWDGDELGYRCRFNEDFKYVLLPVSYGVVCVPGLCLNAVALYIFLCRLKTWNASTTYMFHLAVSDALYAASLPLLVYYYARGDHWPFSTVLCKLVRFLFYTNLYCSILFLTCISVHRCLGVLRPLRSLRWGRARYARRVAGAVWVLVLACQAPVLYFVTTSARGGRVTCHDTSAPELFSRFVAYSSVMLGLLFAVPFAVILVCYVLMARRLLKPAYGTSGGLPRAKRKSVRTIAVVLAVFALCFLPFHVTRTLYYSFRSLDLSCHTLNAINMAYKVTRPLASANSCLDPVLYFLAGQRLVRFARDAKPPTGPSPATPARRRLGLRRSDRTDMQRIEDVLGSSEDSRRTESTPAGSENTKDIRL

Compound | amount of RdRp and E mRNA (viral replication) (SARS-CoV-2 [2]) | replication of SARS-CoV-2 and/or associated cytopathogenic effects (SARS-CoV-2 [2]) | ACE2 expression in response to SARS-CoV-2 infection (SARS-CoV-2 [3]) | replication of SARS-CoV-2 and/or associated cytopathogenic effects (SARS-CoV-2 [5]) | IL-1β release [6] | cytopathogenicity / cytopathogenic effects of SARS-CoV-2 (SARS-CoV-2 [7]) | ACE2 membrane expression (ACE2 [8]) | ACE2 membrane expression (ACE2 [9]) | intracellular expression of Spike (SARS-CoV-2 [3]) | viability of uninfected cells (Vero E6 cells) | viability of uninfected cells (ACE2-A549 cells) | other results
O=c1ccn([C@@H]2O[C@H](COP(=O)(O)OP(=O)(O)OP(=O)(O)OP(=O)(O)OC[C@H]3O[C@@H](n4ccc(=O)[nH]c4=O)[C@H](O)[C@@H]3O)[C@@H](O)[C@H]2O)c(=O)[nH]1 [Diquafosol] | strongly reduced the amount of RdRp and E mRNA | strongly blocked the replication of SARS-CoV-2 and/or reduced associated cytopathogenic effects | repressed ACE2 down regulation | strongly blocked the replication of SARS-CoV-2 and/or reduced associated cytopathogenic effects | impaired IL-1β release | exhibited inhibitory effects on cytopathogenicity | did not change | did not change |  |  |  | Bleomycin-induced lung inflammation ([1]; 50 UI bleomycin intratracheal, FIG. 17): abolishes Bleomycin-induced lung inflammation; lung lesions (CT scan) ([1]; day 20, FIG. 17A): reduces lung lesions induced by bleomycin treatment; IFNγ-mediated increase expression of IRF5 ([4]; PMA-THP1 macrophages, FIG. 6P): impaired IFNγ-mediated increase expression of IFN regulatory factor 5 (IRF5); IRF5 expression ([4]; indicated concentrations, 20 ng IFNγ 12 hours, FIG. 1D): confirmed; release of IL-1β in supernatant ([6]; indicated concentrations, 12 hours, LPS+ATP, FIG. 1B): impaired the release of IL-1β
Cc1ccc2c(c1)C=Cc1cc(C)ccc1C2c1cn(Cc2ccc(C(=O)Nc3nn[nH]n3)o2)c(=O)[nH]c1=S [AR-C118925XX] |  |  |  |  |  |  |  |  |  |  |  | P2Y2-NLRP3 interaction (frequency of PLA+ cells) (P2Y2-NLRP3 interaction): enhanced the P2Y2-NLRP3 interaction
Cc1ccc(C(=O)Nc2ccc(S(=O)(=O)O)c3cc(S(=O)(=O)O)cc(S(=O)(=O)O)c23)cc1NC(=O)c1cccc(NC(=O)Nc2cccc(C(=O)Nc3cc(C(=O)Nc4ccc(S(=O)(=O)O)c5cc(S(=O)(=O)O)cc(S(=O)(=O)O)c45)ccc3C)c2)c1 [Suramin] |  |  |  |  | increased IL-1β release |  |  |  |  |  |  | 
O=c1ccn([C@@H]2O[C@H](COP(=O)(O)OP(=O)(O)OP(=O)(O)O)[C@@H](O)[C@H]2O)c(=O)[nH]1 [UTP, Uridine 5′-triphosphate] | strongly reduced the amount of RdRp and E mRNA | strongly blocked the replication of SARS-CoV-2 and/or reduced associated cytopathogenic effects | repressed ACE2 down regulation | strongly blocked the replication of SARS-CoV-2 and/or reduced associated cytopathogenic effects |  | exhibited inhibitory effects on cytopathogenicity | did not change | did not change |  |  |  | IRF5 expression ([4]; 10 and 100 μM, 50 ng IFNγ 24 hours, FIG. 1C): decrease of IRFS expression
Nc1ccn([C@H]2C[C@H](O)[C@@H](COP(=O)(O)OP(=O)(O)OP(=O)(O)OP(=O)(O)OC[C@H]3O[C@@H](n4ccc(=O)[nH]c4=O)[C@H](O)[C@@H]3O)O2)c(=O)n1 [Denufosol] | strongly reduced the amount of RdRp and E mRNA | strongly blocked the replication of SARS-CoV-2 and/or reduced associated cytopathogenic effects |  | strongly blocked the replication of SARS-CoV-2 and/or reduced associated cytopathogenic effects |  | exhibited inhibitory effects on cytopathogenicity | did not change | did not change |  |  |  | 
2′(3′)-O-(4-Benzoylbenzoyl) adenosine 5′-triphosphate [BzATP] | strongly enhanced viral replication |  | reduces ACE2 expression levels |  |  |  | did not change | did not change | increase of intracellular Spike expression levels | did not show a significant impact | did not show a significant impact | entry of SARS-CoV2 into host cells (SARS-CoV-2 [3]; Vero E6): significantly increased the entry of SARS-CoV2 into host cells
Cc1nc(N=Nc2ccc(S(=O)(=O)O)cc2S(=O)(=O)O)c(COP(=O)(O)O)c(C=O)c1O [PPADS, pyridoxal-phosphate-6-azopheny-2′,4′-disulfonate] | repressed RdRp and E mRNA expression |  |  |  |  | reduced | did not change | did not change | reduced | partially affected viability | partially affected viability | frequency of Spike-positive cells (SARS-CoV-2 [10]): reduced the frequency of Spike-positive cells
O=c1ccn([C@@H]2O[C@H](COP(=O)(O)OP(=O)(O)OP(=O)(O)OP(=O)(O)Oc3ccccc3)[C@@H](O)[C@H]2O)c(=O)[nH]1 [MRS2768] |  |  |  |  |  |  |  |  |  |  |  | release of IL-1β in supernatant ([6]; 50 μM, 1 hour pretreatment, 10 ng/ml LPS 3 hours + 5 mM ATP 6 hours, FIG. 1A): strongly inhibited the release of IL-1β
Nc1ncnc2c1ncn2[C@@H](C=O)O[C@@H](C=O)COP(=O)(O)OP(=O)(O)OP(=O)(O)O [OxATP, oxidized ATP] |  |  | repressed ACE2 down regulation |  | reduced IL-1β release | reduced | did not change | did not change | reduced | partially affected viability | partially affected viability | frequency of Spike-positive cells (SARS-CoV-2 [10]): reduced the frequency of Spike-positive cells
